Measured values published in patent US5134125A, “Nutrient composition” (Kyowa Hakko Kogyo Co., Ltd., priority 1989, dated 1992).
Where a SMILES comes first, the peptide text is derived from it.

How the values were obtained:
[1] = Hydrolysis of dipeptides in human plasma; type: in vitro ADME; settings: 37° C., 30 minutes; for Residual Rate: 10 mM dipeptide
Method: Each of the dipeptides shown in Table 1 below was added to 0.75 ml of plasma collected and prepared from human to give a concentration of 10 mM, followed by reaction at 37° C. for 30 minutes.

[2] = Hydrolysis of dipeptides in mouse plasma; type: in vitro ADME, C3H/He mice; settings: 3.13 mM, 37° C.; for Residual Rate: mean of five mice
Method: Each of the dipeptides shown in Table 2 below was added to 0.05 ml of plasma collected and prepared from C3H/He mice (6 weeks of age, male, weighing 20 g) to give a concentration of 3.13 mM, followed by reaction at 37° C. for 2, 5, 10 and 20 minutes. Five mice were used for each test group, and the results are shown by the mean value.

[3] = Change in concentration in blood of dipeptides administered to mice; type: in vivo, C3H/He mice; settings: tail vein, 250 μmoles/kg body weight, FIG. 1
Description: γ-L-Glutamyl-L-glutamine and L-alanyl-L-glutamine were respectively administered to C3H/He mice (6 weeks of age, male, weighing 20 g) through the tail vein at a dose of 250 μmoles/kg body weight, and blood was collected intermittently. Five mice were used for each test group, and the results are shown by the mean ±SEM.

[4] = Influence of administered dipeptides on renal glutamine level; type: in vivo, C3H/He mice; settings: mice, tail vein; for Concentration of Glutamine in kidney: 250 γmoles/kg body weight, kidneys excised after 20 minutes, mean ±SEM, five mice
Method: γ-L-Glutamine-L-glutamine and L-alany-L-glutamine were respectively administered to C3H/He mice (6 weeks of age, male, weighing 20 g) through the tail vein at a dose of 250 γmoles/kg body weight, and after 20 minutes, the kidneys were excised. The glutamine level in the organ was compared to that prior to the administration of the dipeptides. Five mice were used for each test group, and the results are shown by the mean ±SEM.

[5] = Stability in solution under sterilizing conditions; type: physicochemical; settings: solution 10 mM, pH 6.5, 110° C. for 60 minutes
[6] = Storage stability test at 40° C. for 30 days; type: physicochemical; settings: in solution
[7] = target: T1, γ-GTP (γ-glutamyl transferase) (Sus scrofa, UniProt P20735); assay: Hydrolysis of dipeptides by γ-GTP; type: biochemical; settings: 5 mM dipeptide, Tris-HCl buffer 50 mM pH 7.0, γ-GTP from swine kidney, 37° C., 120 minutes
T1 construct: γ-GTP prepared from swine kidney was added to the solution; from tissue; host or cells: swine kidney
T1 sequence (P20735 380-568 limits assumed): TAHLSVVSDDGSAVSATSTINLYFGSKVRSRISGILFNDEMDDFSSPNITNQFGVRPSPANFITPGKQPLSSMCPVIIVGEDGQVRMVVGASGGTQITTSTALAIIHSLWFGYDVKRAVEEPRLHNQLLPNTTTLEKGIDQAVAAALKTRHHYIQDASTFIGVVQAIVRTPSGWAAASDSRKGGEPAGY
T1 sequence (P20735 1-379 limits assumed): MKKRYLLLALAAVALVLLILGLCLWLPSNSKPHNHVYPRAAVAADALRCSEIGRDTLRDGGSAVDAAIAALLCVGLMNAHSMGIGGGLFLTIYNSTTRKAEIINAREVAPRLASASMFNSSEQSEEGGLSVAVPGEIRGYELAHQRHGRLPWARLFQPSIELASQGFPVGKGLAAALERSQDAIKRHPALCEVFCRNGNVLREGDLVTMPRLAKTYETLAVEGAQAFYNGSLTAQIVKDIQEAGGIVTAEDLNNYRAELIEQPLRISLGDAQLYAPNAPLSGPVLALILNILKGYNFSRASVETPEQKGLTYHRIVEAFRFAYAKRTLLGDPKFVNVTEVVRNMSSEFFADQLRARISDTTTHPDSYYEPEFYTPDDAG

[8] = Stability in nutrient preparations under heat sterilization; type: physicochemical
γ-glutamyl transferase = settings: J. Biol. Chem., vol. 253, No. 6, p. 1799-1806 (1978); cited from earlier work
[9] = tested on: γ-glutamyl cyclotransferase; settings: J. Biol. Chem., vol. 253, No. 6, p. 1799-1806 (1978); cited from earlier work

NCC(=O)N[C@@H](CCC(N)=O)C(=O)O [Glycyl-L-glutamine] (H-Gly-Gln-OH)
Residual Rate [1]: 84%

C[C@H](N)C(=O)N[C@@H](CCC(N)=O)C(=O)O [L-Alanyl-L-glutamine, reference compound] (H-Ala-Gln-OH)
Residual Rate [1]: 74% | Residual Rate ([2]; 2 minutes): 87% | Residual Rate ([2]; 5 minutes): 62% | Residual Rate ([2]; 10 minutes): 24% | Residual Rate ([2]; 20 minutes): 11% | Appearance (release) of glutamine in blood [3]: rapid release of glutamine into the blood | Disappearance of the dipeptide from blood [3]: disappeared extremely rapidly | Concentration of Glutamine in kidney [4]: 1.14 ± 0.09 μmole/g wet weight

NC(=O)CC[C@H](NC(=O)[C@@H](N)CC(=O)O)C(=O)O [L-Aspartyl-L-glutamine] (H-Asp-Gln-OH)
Residual Rate [1]: 58%

NC(=O)CC[C@H](N)C(=O)O [L-Glutamine, reference compound]
Decomposition under sterilizing conditions [5]: 60% | Residual Rate after Sterilization [5]: 40% | Decomposition in storage stability test [6]: 29% | Residual Rate after Storage at 40° C. for 30 days [6]: 71%

NC(=O)CC[C@H](NC(=O)CC[C@H](N)C(=O)O)C(=O)O [γ-L-Glutamyl-L-glutamine]
Residual Rate [1]: 99% | Hydrolysis in human plasma ([1]; 10 mM): substantially free of hydrolysis | Hydrolysis by γ-GTP [7]: almost completely hydrolyzed | Residual Rate ([2]; 2 minutes): 100% | Residual Rate ([2]; 5 minutes): 100% | Residual Rate ([2]; 10 minutes): 100% | Residual Rate ([2]; 20 minutes): 100% | Hydrolysis in mouse plasma ([2]; up to 20 minutes): not hydrolyzed at all | Appearance (release) of glutamine in blood [3]: slow | Disappearance of the dipeptide from blood [3]: slow | Concentration of Glutamine in kidney [4]: 1.57 ± 0.12 μmole/g wet weight | Renal glutamine level ([4]; 20 minutes after administration, compared to prior to administration): significantly high renal glutamine level | Decomposition under sterilizing conditions [5]: not decomposed at all | Residual Rate after Sterilization [5]: 100% | Decomposition in storage stability test [6]: not decomposed at all | Residual Rate after Storage at 40° C. for 30 days [6]: 100% | Stability under the sterilizing conditions ([8]; Example 2 jelly-like nutrient preparation, heated at 100° C. for 30 minutes): remained stable | Stability under the sterilizing conditions ([8]; Example 3 composition for oral nutrient supplementation, 110° C. for 60 minutes): remained stable | Substrate for γ-glutamyl transferase (γ-glutamyl transferase): effective substrate | Substrate for γ-glutamyl cyclotransferase [9]: effective substrate
